Patent US20100010096A1, “Methadone chiral isolate as an improved pharmaceutical” (priority 2006, published 2010)

Target: T1, IKr channel (Homo sapiens, UniProt Q12809)
T1 construct: expressed in transfected cells; host or cells: Xenopus oocytes (cRNA injection)
Assay: IKr inhibition in xenopus oocytes overexpressing the IKr channel, two electrode voltage clamp
Format: cell-based
Conditions: methadone racemate 0.01 to 3 mM, FIG. 3

T1 sequence (Q12809 whole entry): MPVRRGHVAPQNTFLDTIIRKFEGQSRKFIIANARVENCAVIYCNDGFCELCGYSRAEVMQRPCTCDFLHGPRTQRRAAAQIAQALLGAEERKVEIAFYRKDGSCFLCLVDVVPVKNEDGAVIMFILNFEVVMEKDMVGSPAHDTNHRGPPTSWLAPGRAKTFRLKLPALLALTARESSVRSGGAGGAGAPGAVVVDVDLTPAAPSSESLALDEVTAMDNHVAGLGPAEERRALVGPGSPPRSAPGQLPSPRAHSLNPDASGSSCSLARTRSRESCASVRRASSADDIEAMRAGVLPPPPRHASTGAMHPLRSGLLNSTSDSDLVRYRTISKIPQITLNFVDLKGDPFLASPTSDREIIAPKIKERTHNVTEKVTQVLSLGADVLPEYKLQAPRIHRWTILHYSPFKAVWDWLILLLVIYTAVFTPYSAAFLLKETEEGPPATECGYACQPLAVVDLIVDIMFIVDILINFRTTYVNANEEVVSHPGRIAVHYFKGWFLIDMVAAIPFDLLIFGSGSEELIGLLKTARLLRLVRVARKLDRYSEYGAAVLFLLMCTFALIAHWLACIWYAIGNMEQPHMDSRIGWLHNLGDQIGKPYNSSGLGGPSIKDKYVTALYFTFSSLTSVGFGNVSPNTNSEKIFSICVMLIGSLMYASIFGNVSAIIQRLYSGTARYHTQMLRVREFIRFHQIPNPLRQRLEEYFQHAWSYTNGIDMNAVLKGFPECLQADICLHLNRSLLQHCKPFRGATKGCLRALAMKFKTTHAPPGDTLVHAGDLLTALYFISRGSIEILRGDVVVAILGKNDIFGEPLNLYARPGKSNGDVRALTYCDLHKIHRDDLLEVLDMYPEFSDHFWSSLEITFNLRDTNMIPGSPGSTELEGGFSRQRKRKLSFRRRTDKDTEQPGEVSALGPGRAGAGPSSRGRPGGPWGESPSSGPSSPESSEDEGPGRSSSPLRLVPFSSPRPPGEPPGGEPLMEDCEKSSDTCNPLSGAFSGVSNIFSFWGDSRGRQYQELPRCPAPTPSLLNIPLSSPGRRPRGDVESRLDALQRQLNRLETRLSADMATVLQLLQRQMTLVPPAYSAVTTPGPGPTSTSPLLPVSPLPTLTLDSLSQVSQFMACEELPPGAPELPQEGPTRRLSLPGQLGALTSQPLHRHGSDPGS

CCC(=O)C(CC(C)N(C)C)(c1ccccc1)c1ccccc1 (racemic) [methadone]
inhibition of the IKr current: dose related inhibition of the IKr current
